According to PubChem BioAssay AID248 (DTP/NCI, 2004):
Where “and” joins values, the source holds several entries; their conditions need not be identical. Equal values may be shown once. Toxic doses and inconclusive results are not listed. No stated cut-off is given here; in the data, active means T/C of 150% or more; inactive means T/C below 125%.

Tested on: L1210 leukemia ip in BDF1 mice, survival T/C
Assay: NCI In Vivo Anticancer Drug Screen. Data for tumor model L1210 Leukemia (intraperitoneal) in B6D2F1 (BDF1) mice
Details: endpoint: mean survival time, higher = longer survival
Outline: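 Each compound was tested against a transplantable tumor grown in mice. The endpoint was survival, with treated animals benchmarked against vehicle controls as a simple ratio.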

[1] = dose: 100.0 mg/kg/injection, schedule: Q01DX001 (ip), vehicle: saline
[2] = dose: 200.0 mg/kg/injection, schedule: Q01DX001 (ip), vehicle: saline
[3] = dose: 400.0 mg/kg/injection, schedule: Q01DX001 (ip), vehicle: saline
[4] = dose: 100.0 mg/kg/injection, schedule: Q01DX009 (ip), vehicle: saline with Tween-80
[5] = dose: 100.0 mg/kg/injection, schedule: Q04DX003 (ip), vehicle: saline with Tween-80
[6] = dose: 200.0 mg/kg/injection, schedule: Q04DX003 (ip), vehicle: saline with Tween-80
[7] = dose: 400.0 mg/kg/injection, schedule: Q04DX003 (ip), vehicle: saline with Tween-80
[8] = dose: 100.0 mg/kg/injection, schedule: Q04DX002 (ip), vehicle: Klucel (hydroxypropylcellulose) (HPC)
[9] = dose: 200.0 mg/kg/injection, schedule: Q04DX002 (ip), vehicle: Klucel (hydroxypropylcellulose) (HPC)
[10] = dose: 400.0 mg/kg/injection, schedule: Q04DX002 (ip), vehicle: Klucel (hydroxypropylcellulose) (HPC)
[11] = dose: 200.0 mg/kg/injection, schedule: Q01DX009 (ip), vehicle: saline with Tween-80
[12] = dose: 100.0 mg/kg/injection, schedule: Q04DX003 (ip), vehicle: other
[13] = dose: 200.0 mg/kg/injection, schedule: Q04DX003 (ip), vehicle: other
[14] = dose: 100.0 mg/kg/injection, schedule: Q01DX009 (ip), vehicle: Klucel (hydroxypropylcellulose) (HPC)
[15] = dose: 200.0 mg/kg/injection, schedule: Q01DX009 (ip), vehicle: Klucel (hydroxypropylcellulose) (HPC)
[16] = dose: 400.0 mg/kg/injection, schedule: Q01DX009 (ip), vehicle: Klucel (hydroxypropylcellulose) (HPC)

Measured: T/C

CC(=O)Nc1c(OC(C)=O)ccc2cc(Br)ccc12
inactive: dose: 100.0 mg/kg/injection, schedule: Q01DX015 (ip), vehicle: saline 92 % of control | dose: 200.0 mg/kg/injection, schedule: Q01DX015 (ip), vehicle: saline 100 % of control | dose: 400.0 mg/kg/injection, schedule: Q01DX015 (ip), vehicle: saline 92 % of control | dose: 800.0 mg/kg/injection, schedule: Q01DX015 (ip), vehicle: saline 96 % of control

Cc1ccccc1S(=O)(=O)CC(Cl)c1ccccc1 (centres undefined)
inactive: [1] 102 % of control | dose: 100.0 mg/kg/injection, schedule: Q01DX009 (ip), vehicle: saline 93 % of control | [2] 102 % of control | dose: 200.0 mg/kg/injection, schedule: Q01DX009 (ip), vehicle: saline 91 % of control | [3] 107 % of control | dose: 400.0 mg/kg/injection, schedule: Q01DX009 (ip), vehicle: saline 91 % of control

O/N=C/c1ccccc1
inactive: dose: 66.0 mg/kg/injection, schedule: Q01DX009 (ip), vehicle: saline with Tween-80 87 % of control | [4] 96 % of control | dose: 150.0 mg/kg/injection, schedule: Q01DX009 (ip), vehicle: saline with Tween-80 95 % of control

CCCCCC/C=C/C(=O)OCC
inactive: [5] 96 % of control | [6] 101 % of control | [7] 101 % of control

Cc1ccc(S(=O)(=O)N(CCO)CCO)cc1
inactive: dose: 100.0 mg/kg/injection, schedule: Q04DX003 (ip), vehicle: Klucel (hydroxypropylcellulose) (HPC) 101 % of control | dose: 200.0 mg/kg/injection, schedule: Q04DX003 (ip), vehicle: Klucel (hydroxypropylcellulose) (HPC) 100 % of control | dose: 400.0 mg/kg/injection, schedule: Q04DX003 (ip), vehicle: Klucel (hydroxypropylcellulose) (HPC) 92 % of control

OC(CC(O)(C(F)(F)F)C(F)(F)F)c1ccccc1 (centres undefined)
inactive: [5] 103 % of control | [6] 96 % of control | [7] 97 % of control

CC(=O)Nc1ccc(S(=O)(=O)C2=CC(=O)c3ccccc3C2=O)cc1
inactive: [1] 95 % of control

CCOc1cc(OCC)c(/C=C/[N+](=O)[O-])c(OCC)c1
inactive: [8] 87 % of control | [9] 97 % of control | [10] 100 % of control

CS(=O)(=O)OCCN(Cc1ccc(OS(C)(=O)=O)cc1)S(C)(=O)=O
inactive: [4] 91 % of control | [5] 109 % of control | [11] 93 % of control | [6] 95 % of control | [7] 109 % of control

[Cu+].[S-]c1ccsc1
inactive: dose: 10.0 mg/kg/injection, schedule: Q01DX001 (ip), vehicle: carboxymethylcellulose (CMC) 95 % of control | dose: 20.0 mg/kg/injection, schedule: Q01DX001 (ip), vehicle: carboxymethylcellulose (CMC) 93 % of control | dose: 40.0 mg/kg/injection, schedule: Q01DX001 (ip), vehicle: carboxymethylcellulose (CMC) 90 % of control | dose: 80.0 mg/kg/injection, schedule: Q01DX001 (ip), vehicle: carboxymethylcellulose (CMC) 106 % of control

S=C(SSC(=S)N1CCOCC1)N1CCOCC1
inactive: dose: 100.0 mg/kg/injection, schedule: Q01DX001 (ip), vehicle: Klucel (hydroxypropylcellulose) (HPC) 88 % of control | dose: 100.0 mg/kg/injection, schedule: Q04DX003 (ip), vehicle: saline 93 % of control | dose: 200.0 mg/kg/injection, schedule: Q01DX001 (ip), vehicle: Klucel (hydroxypropylcellulose) (HPC) 101 % of control | dose: 200.0 mg/kg/injection, schedule: Q04DX003 (ip), vehicle: saline 101 % of control

O=CC(O)C(O)C(OC1OC(CO)C(O)C(O)C1O)C(O)CO (centres undefined)
inactive: dose: 100.0 mg/kg/injection, schedule: Q04DX002 (ip), vehicle: carboxymethylcellulose (CMC) 93 % of control and 117 % of control | dose: 100.0 mg/kg/injection, schedule: Q04DX003 (ip), vehicle: carboxymethylcellulose (CMC) 99 % of control | dose: 200.0 mg/kg/injection, schedule: Q04DX002 (ip), vehicle: carboxymethylcellulose (CMC) 93 % of control and 92 % of control | dose: 200.0 mg/kg/injection, schedule: Q04DX003 (ip), vehicle: carboxymethylcellulose (CMC) 96 % of control | dose: 400.0 mg/kg/injection, schedule: Q04DX002 (ip), vehicle: carboxymethylcellulose (CMC) 100 % of control and 86 % of control | dose: 400.0 mg/kg/injection, schedule: Q04DX003 (ip), vehicle: carboxymethylcellulose (CMC) 87 % of control

CC(C)(C)C1COP(=O)(OCc2ccccc2)OC1 (centres undefined)
inactive: [12] 92 % of control | [13] 91 % of control

COC(=O)CNC(=O)c1cccc([N+](=O)[O-])c1
inactive: [1] 96 % of control | [2] 94 % of control | [3] 97 % of control

Cc1nc(N)[nH]c(=O)c1CCCNc1nc(Cl)nc(Cl)n1
inactive: [8] 91 % of control | [9] 91 % of control | [10] 88 % of control

O=C(Nc1ccc(Cl)cc1[N+](=O)[O-])Oc1ccc(C2CCCCC2)cc1
inactive: [14] 93 % of control | [15] 89 % of control | [16] 88 % of control

O=C([O-])c1ccccc1[I+]c1ccc(C2CCCCC2)cc1
inactive: dose: 50.0 mg/kg/injection, schedule: Q01DX001 (ip), vehicle: saline 100 % of control | [1] 100 % of control | [2] 105 % of control | [3] 103 % of control

CC(=O)OC(c1ccccc1)C(Cl)(Cl)Cl (centres undefined)
inactive: [4] 93 % of control | [11] 104 % of control | dose: 400.0 mg/kg/injection, schedule: Q01DX009 (ip), vehicle: saline with Tween-80 97 % of control

Cc1cccc(Cl)c1NC(=O)c1cccc(C(=O)Nc2c(C)cccc2Cl)c1
inactive: [14] 96 % of control | [15] 94 % of control | [16] 91 % of control

CCN(CC)CCNc1ccc(CO)c(Cl)c1
inactive: dose: 31.25 mg/kg/injection, schedule: Q01DX009 (ip), vehicle: Klucel (hydroxypropylcellulose) (HPC) 92 % of control | dose: 62.5 mg/kg/injection, schedule: Q01DX009 (ip), vehicle: Klucel (hydroxypropylcellulose) (HPC) 89 % of control | dose: 125.0 mg/kg/injection, schedule: Q01DX009 (ip), vehicle: Klucel (hydroxypropylcellulose) (HPC) 106 % of control

O=S(=O)(CCl)Nc1ccccn1
inactive: dose: 100.0 mg/kg/injection, schedule: Q01DX009 (ip), vehicle: other 96 % of control | [12] 106 % of control | dose: 200.0 mg/kg/injection, schedule: Q01DX009 (ip), vehicle: other 103 % of control | [13] 108 % of control | dose: 400.0 mg/kg/injection, schedule: Q01DX009 (ip), vehicle: other 102 % of control | dose: 400.0 mg/kg/injection, schedule: Q04DX003 (ip), vehicle: other 100 % of control

CNC(=S)c1ccc(Cl)cc1
inactive: dose: 12.5 mg/kg/injection, schedule: Q01DX009 (ip), vehicle: Klucel (hydroxypropylcellulose) (HPC) 96 % of control | dose: 25.0 mg/kg/injection, schedule: Q01DX009 (ip), vehicle: Klucel (hydroxypropylcellulose) (HPC) 94 % of control

CSc1nc(C)c(C)[n+](C)n1
inactive: dose: 75.0 mg/kg/injection, schedule: Q01DX001 (ip), vehicle: saline with Tween-80 115 % of control | dose: 150.0 mg/kg/injection, schedule: Q01DX001 (ip), vehicle: saline with Tween-80 117 % of control
